Assay results published in PubChem BioAssay AID652066 (The Scripps Research Institute Molecular Screening Center, 2013).

Target: Nuclear receptor coactivator 3 (Homo sapiens) (UniProt Q9Y6Q9)
Assay: SRC-3 protein downregulation in breast cancer cells – cell-based, MCF-7, Western blot, powder samples, mechanism study for SRC-3 inhibitor probe project, late-stage follow-up (AID 652066)
Conditions: MCF-7 SRC-3 protein level, 24 h; call rule not given here

Sequence of Nuclear receptor coactivator 3 (Homo sapiens) (Q9Y6Q9 whole entry, looked up): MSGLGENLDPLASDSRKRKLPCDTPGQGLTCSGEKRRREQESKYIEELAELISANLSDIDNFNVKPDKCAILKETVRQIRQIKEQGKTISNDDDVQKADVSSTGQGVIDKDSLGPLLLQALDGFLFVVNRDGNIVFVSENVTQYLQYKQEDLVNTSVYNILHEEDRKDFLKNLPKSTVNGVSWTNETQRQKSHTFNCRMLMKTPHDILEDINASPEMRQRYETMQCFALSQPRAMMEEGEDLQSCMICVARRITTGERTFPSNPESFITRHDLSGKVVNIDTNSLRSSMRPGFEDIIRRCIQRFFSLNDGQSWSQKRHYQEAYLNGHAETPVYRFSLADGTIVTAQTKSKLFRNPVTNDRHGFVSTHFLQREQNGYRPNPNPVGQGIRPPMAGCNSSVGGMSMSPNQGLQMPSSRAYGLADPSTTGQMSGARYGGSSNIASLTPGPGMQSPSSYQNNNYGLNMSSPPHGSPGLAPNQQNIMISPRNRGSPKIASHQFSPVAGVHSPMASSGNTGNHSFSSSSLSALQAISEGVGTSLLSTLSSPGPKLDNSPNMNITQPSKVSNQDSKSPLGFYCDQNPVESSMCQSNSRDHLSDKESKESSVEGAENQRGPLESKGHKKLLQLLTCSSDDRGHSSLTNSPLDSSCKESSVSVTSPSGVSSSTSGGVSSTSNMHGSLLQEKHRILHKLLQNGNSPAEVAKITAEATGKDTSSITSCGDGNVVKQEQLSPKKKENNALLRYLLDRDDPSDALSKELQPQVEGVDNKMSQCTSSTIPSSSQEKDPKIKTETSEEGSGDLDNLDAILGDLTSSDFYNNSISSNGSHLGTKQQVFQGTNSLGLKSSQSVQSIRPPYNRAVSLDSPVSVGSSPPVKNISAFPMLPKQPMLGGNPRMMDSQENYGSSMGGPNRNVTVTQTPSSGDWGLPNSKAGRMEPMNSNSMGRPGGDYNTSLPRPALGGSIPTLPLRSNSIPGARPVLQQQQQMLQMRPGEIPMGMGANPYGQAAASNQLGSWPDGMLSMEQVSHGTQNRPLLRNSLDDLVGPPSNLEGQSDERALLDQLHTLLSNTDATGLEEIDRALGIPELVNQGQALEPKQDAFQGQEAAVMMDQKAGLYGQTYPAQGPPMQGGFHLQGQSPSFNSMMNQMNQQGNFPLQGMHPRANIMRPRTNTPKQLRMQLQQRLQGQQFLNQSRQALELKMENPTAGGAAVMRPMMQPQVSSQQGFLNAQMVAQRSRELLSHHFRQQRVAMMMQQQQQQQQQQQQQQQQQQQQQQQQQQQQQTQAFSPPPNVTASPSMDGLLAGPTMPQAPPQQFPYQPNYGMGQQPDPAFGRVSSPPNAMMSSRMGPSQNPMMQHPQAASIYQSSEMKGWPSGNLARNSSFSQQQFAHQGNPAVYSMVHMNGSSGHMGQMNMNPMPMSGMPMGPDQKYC

IC50, active:
COc1cc(C2c3cc4c(cc3C(OC3OC5COC(c6cccs6)OC5C(O)C3O)C3COC(=O)C23)OCO4)cc(OC)c1O (stereo unspecified) < 400 nM
O=C(Nc1nc(-c2ccccn2)cs1)c1cccc(S(=O)(=O)N2CCOCC2)c1 < 2000 nM
O=C(CCl)N1N=C(c2ccco2)CC1c1cccs1 (stereo unspecified) < 400 nM
COc1cc2c(cc1OC)C(NC(=O)C(F)(F)F)CNC2=O (stereo unspecified) < 2000 nM
O=C(CCl)N1N=C(c2ccco2)CC1c1ccco1 (stereo unspecified) < 2000 nM
NC(=O)c1sc2nc3c(c(-c4ccco4)c2c1N)CCC3 < 2000 nM
